The values below come from patent US9453253B2, “Methods of using isotopically labelled isoniazid for the diagnosis of mycobacterial infections” (priority 2012, dated 2016).

One assay relates to M. bovis BCG. Format: cell-based.
Assay [1] relates to Mycobacterium tuberculosis H37Rv. The format is cell-based. As to conditions: M. tuberculosis H37Rv, 1 mg/mL, 1 hour, head gas, control subtracted.

Molecules are shown by their SMILES.

`[15NH2][15NH]C(=O)c1ccncc1` [^15N2-hydrazyl-INH]: in the assay with M. bovis BCG, the “30/28 mass signal in nitrogen gas, dependency on CFU” value is on record as “proportional to CFU/mL”; the “30/28 mass signal in nitrogen gas, dose dependence” value is “dependent upon dose”; the “30/28 mass signal in nitrogen gas, time dependence” value is “increase in the signal over the course of an hour, which then begins to decrease by 4 hours”. The “30/28 mass signal in nitrogen gas, dependency on CFU” value in assay [1] is reported as “proportional to CFU/mL”.
